pIC50: −log10 of the molar value.
Columns and labels:
5-LO [1] = test: Test c): ex vivo variation of test b), oral administration, blood collection, A23187 challenge, radioimmunoassay of LTB4; assay type: in vivo
Experimental: (§1) As stated previously, the heterocycles of the formula I are inhibitors of the enzyme 5-LO. […] This test provides a measure of the intrinsic inhibitory properties against soluble 5-LO in an extracellular environment. • b) An in vitro assay system involving incubating a test compound with heparinised human blood, prior to challenge with the calcium ionophore A23187 and then indirectly measuring the inhibitory effects on 5-LO by assaying the amount of L TB4 using the specific radioimmunoassay described by Carey and Forder (F. Carey and R.A. Forder, Brit. J. Pharmacol. 1985, 84, 34P) which involves the use of a protein-L TB4 conjugate produced using the procedure of Young et alia (Prostaglandins, 1983, 26(4), 605-613). The effects of a test compound on the enzyme cyclooxygenase (which is involved in the alternative metabolic pathway for arachidonic acid and gives rise to prostaglandins, thromboxanes and related metabolites) may be measured at the same time using the specific radioimmunoassay for thromboxane B2(TxB2) described by Carey and Forder (see above). This test provides an indication of the effects of a test compound against 5-LO and also cyclooxygenase in the presence of blood cells and proteins. It permits the selectivity of the inhibitory effect on 5-LO or cyclooxygenase to be assessed. • c) An ex vivo assay system, which is a variation of test b) above, involving administration of a test compound (usually orally as the suspension produced when a solution of the test compound in dimethylsulphoxide is added to carboxymethylcellulose), blood collection, heparinisation, challenge with A23187 and radioimmunoassay of L TB4 and TxB2. […]

5-LO [2] = molecular target: T1, 5-LO (Homo sapiens, UniProt P09917); test: Test b): in vitro heparinised human blood challenged with calcium ionophore A23187, radioimmunoassay of LTB4; assay type: cell-based; details: A23187 challenge, read-out: IC50 against LTB4
T1 construct: incubating a test compound with heparinised human blood, prior to challenge with the calcium ionophore A23187; endogenous in cells; host or cells: leukocytes of heparinised human whole blood
T1 sequence (P09917 1-674): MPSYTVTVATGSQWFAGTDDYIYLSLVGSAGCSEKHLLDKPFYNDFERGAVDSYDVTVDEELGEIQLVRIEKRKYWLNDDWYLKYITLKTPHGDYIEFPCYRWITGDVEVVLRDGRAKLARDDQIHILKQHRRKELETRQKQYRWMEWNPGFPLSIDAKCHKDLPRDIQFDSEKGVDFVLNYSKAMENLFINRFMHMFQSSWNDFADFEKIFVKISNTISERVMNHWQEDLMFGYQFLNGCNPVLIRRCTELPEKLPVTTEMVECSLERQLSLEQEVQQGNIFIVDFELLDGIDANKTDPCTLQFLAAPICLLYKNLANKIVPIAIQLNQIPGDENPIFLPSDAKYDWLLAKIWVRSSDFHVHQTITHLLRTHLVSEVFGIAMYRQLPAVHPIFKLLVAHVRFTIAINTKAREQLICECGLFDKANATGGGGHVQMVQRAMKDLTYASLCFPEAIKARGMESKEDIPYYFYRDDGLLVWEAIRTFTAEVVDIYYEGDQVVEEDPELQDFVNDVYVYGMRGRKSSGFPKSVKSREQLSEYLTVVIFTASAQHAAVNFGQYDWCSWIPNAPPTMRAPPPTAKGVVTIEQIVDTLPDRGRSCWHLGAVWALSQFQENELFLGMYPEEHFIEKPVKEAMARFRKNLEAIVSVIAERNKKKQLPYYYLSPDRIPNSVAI
Experimental: as §1, with “J. Pharmacol. 1985, 84, 34P) which involves the use of a protein-L TB4 conjugate produced using the procedure of Young et alia (Prostaglandins, 1983, 26(4), 605-613).” left out, “This test provides an indication of the effects of a test compound against 5-LO and also cyclooxygenase in the presence of blood cells and proteins.” left out

cyclooxygenase = molecular target: T2, cyclooxygenase (Homo sapiens, UniProt P23219); test: Test b): in vitro heparinised human blood challenged with A23187, radioimmunoassay of thromboxane B2 (TxB2); assay type: cell-based; details: A23187 challenge, read-out: IC50 against TxB2
T2 construct: may be measured at the same time using the specific radioimmunoassay for thromboxane B2(TxB2); endogenous in cells; host or cells: blood cells (platelets) of heparinised human whole blood
T2 sequence (P23219 24-599): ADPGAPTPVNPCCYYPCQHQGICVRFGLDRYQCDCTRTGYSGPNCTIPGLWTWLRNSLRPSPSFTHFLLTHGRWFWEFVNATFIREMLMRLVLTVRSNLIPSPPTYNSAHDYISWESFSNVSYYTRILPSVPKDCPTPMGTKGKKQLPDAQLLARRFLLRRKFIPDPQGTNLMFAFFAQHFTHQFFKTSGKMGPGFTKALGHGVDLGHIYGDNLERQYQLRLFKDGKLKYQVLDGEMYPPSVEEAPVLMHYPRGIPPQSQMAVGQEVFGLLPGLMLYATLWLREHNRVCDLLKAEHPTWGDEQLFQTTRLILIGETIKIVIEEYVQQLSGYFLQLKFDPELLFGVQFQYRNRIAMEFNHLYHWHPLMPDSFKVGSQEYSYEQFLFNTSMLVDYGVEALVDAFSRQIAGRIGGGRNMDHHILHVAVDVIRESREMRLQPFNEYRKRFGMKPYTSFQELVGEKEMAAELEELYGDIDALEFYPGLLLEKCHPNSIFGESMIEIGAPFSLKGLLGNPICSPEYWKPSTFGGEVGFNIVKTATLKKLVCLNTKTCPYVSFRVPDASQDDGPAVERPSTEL
Experimental: as §1, with “J. Pharmacol. 1985, 84, 34P) which involves the use of a protein-L TB4 conjugate produced using the procedure of Young et alia (Prostaglandins, 1983, 26(4), 605-613).” left out, “This test provides an indication of the effects of a test compound against 5-LO and also cyclooxygenase in the presence of blood cells and proteins.” left out

| Compound | oral ED50 against LTB4 (5-LO [1]) [mg/kg] | pIC50 (5-LO [2]) | pIC50 (cyclooxygenase) |
| --- | --- | --- | --- |
| COC1(c2cccc(OCc3ccc4c(ccc(=O)n4C)c3)c2)CCOCC1 [4-[3-(1,2-dihydro-1-methyl-2-oxoquinolin-6-ylmethoxy)phenyl]-4-methoxytetrahydropyran] | 3 |  |  |
| COC1(c2cc(F)cc(OCc3ccc4ncccc4c3)c2)CCOCC1 [4-[5-fluoro-3-(6-quinolylmethoxy)phenyl]-4-methoxytetrahydropyran] | 8 | 7.00 |  |
| COC1(c2cccc(OCC#Cc3ccccn3)c2)CCOCC1 [4-methoxy-4-[3-(3-(2-pyridyl)prop-2-yn-1-yloxy)phenyl]-tetrahydropyran] | < 100 | 5.70 | < 4.40 |

From patent EP0385662B1, “Heterocycles with inhibitory activity of 5-lipoxygenase” (ZENECA LIMITED, priority 1989, dated 1990)
